Experimental data taken from article PMC13266999, “Designing Antibiotics with Inherent Resistance to Efflux as a Strategy to Revive Discovery against Multidrug-Resistant Pathogens” (Journal of Medicinal Chemistry, 2026).
Values after ≈ are worked out from the molar mass of the structure shown. Like-named read-outs stand apart in the source and are kept apart here.

Tested on: S. aureus
Experiment: MIC (microbroth dilution)
Format: cell-based, Staphylococcus aureus
Details: for MIC: Staphylococcus aureus
Description: All bacteria were maintained on tryptic soy agar (TSA), except Streptococcus spp., which were maintained on Columbia agar plates containing 5% horse blood. […] Bacteria were grown to stationary phase in liquid culture overnight, with shaking at 200 rpm, before being back diluted to the relevant starting concentration for each assay below. MICs were measured by the microbroth dilution method. […] Absorbance at OD600 was read on a CLARIOstar spectrophotometer (BMG Labtech) and the MIC was defined as the minimum concentration of compound where no visible growth was detected. […] MICs were also performed in the presence of the outer membrane permeator, polymyxin b nonapeptide (PMBN) following the same MIC method but with the following variation. The 2-fold dilution series of compound was prepared as above, then 50 μL of PMBN at a final concentration of 30 μg/mL was added to relevant wells, while 50 μL/well of blank media was added to the remaining wells. Bacteria were then added at 50 μL/well for a starting concentration as above. […] The MICs were read and defined as above. All animal procedures were performed by the contract research organization Pharmacology Discovery Services Taiwan in accordance with the Guide for the Care and Use of Laboratory Animals. The procedures were approved by the Institutional Ethics Committee of Pharmacology Discovery Services Taiwan, Ltd. (approval no. AB127662), in compliance with animal welfare legislation in Taiwan.

[1] = ATCC9144, ATCC 9144, read-out: MIC
[2] = NCTC13277, NCTC 13277, read-out: MIC
[3] = NCTC13616, NCTC 13616, read-out: MIC

Structure (SMILES) | fold loss of activity compared to 46 | MIC [1] [µg/mL] | MIC [2] [µg/mL] | MIC [3] [µg/mL] | MIC (SA-1199, read-out: MIC) [µg/mL] | MIC (SA-1199B (NorA-overexpressing)) [µg/mL] | fold potentiation compared to levofloxacin (fluoroquinolone-resistant NCTC 13616 and NCTC 13277) | fold improvement over ciprofloxacin alone (fluoroquinolone-resistant S. aureus strains) [fold]
C[C@H]1COc2c(N3CC[C@@H](N)C3)c(F)cc3c(=O)c(C(=O)O)cn1c23 [Compound 45, (S)-10-((R)-3-Aminopyrrolidin-1-yl)-9-fluoro-3-methyl-7-oxo-2,3-dihydro-7H-[1,4]oxazino[2,3,4-ij]quinoline-6-carboxylic acid] | 32- to 64 fold | 0.25 (≈ 0.72 µM) | 32 (≈ 92.1 µM) | 32 (≈ 92.1 µM) | – | – | – | –
CCn1cc(C(=O)O)c(=O)c2cc(F)c(N3CCN(Cc4cccc5cccnc45)CC3)cc21 [Compound 28, 1-Ethyl-6-fluoro-4-oxo-7-(4-(quinolin-8-ylmethyl)piperazin-1-yl)-1,4-dihydroquinoline-3-carboxylic acid] | – | 1 (≈ 2.17 µM) | 128 (≈ 278 µM) | 128 (≈ 278 µM) | – | – | – | –
O=C(O)c1cn(C2CC2)c2cc(N3CCN(Cc4ccc5ccccc5c4)CC3)c(F)cc2c1=O [Compound 23, 1-Cyclopropyl-6-fluoro-7-(4-(naphthalen-2-ylmethyl)piperazin-1-yl)-4-oxo-1,4-dihydroquinoline-3-carboxylic acid] | – | 0.125 (≈ 0.265 µM) | 2 (≈ 4.24 µM) | 2 (≈ 4.24 µM) | – | – | – | –
CCn1cc(C(=O)O)c(=O)c2cc(F)c(N3CCN(Cc4cccc5ccccc45)CC3)cc21 [Compound 20, 1-Ethyl-6-fluoro-7-(4-(naphthalen-1-ylmethyl)piperazin-1-yl)-4-oxo-1,4-dihydroquinoline-3-carboxylic acid] | – | 1 (≈ 2.18 µM) | 2 (≈ 4.35 µM) | 2 (≈ 4.35 µM) | – | – | – | –
O=C(O)c1cn(C2CC2)c2cc(N3CCN(Cc4cccc5ccsc45)CC3)c(F)cc2c1=O [Compound 37, 7-(4-(Benzo[b]thiophen-7-ylmethyl)piperazin-1-yl)-1-cyclopropyl-6-fluoro-4-oxo-1,4-dihydroquinoline-3-carboxylic acid] | – | < 0.125 | 2 (≈ 4.19 µM) | 2 (≈ 4.19 µM) | – | – | – | –
C[C@H]1COc2c(N3CC[C@H](Nc4ncccn4)C3)c(F)cc3c(=O)c(C(=O)O)cn1c23 [Compound 44, (S)-9-Fluoro-3-methyl-7-oxo-10-((S)-3-(pyrimidin-2-ylamino)pyrrolidin-1-yl)-2,3-dihydro-7H-[1,4]oxazino[2,3,4-ij]quinoline-6-carboxylic acid] | – | 0.25 (≈ 0.588 µM) | 8 (≈ 18.8 µM) | 8 (≈ 18.8 µM) | 0.25 (≈ 0.588 µM) | 0.25 (≈ 0.588 µM) | 2–4 fold | –
CCn1cc(C(=O)O)c(=O)c2cc(F)c(N3CCN(Cc4ccc5ccccc5c4)CC3)cc21 [Compound 24, 1-Ethyl-6-fluoro-7-(4-(naphthalen-2-ylmethyl)piperazin-1-yl)-4-oxo-1,4-dihydroquinoline-3-carboxylic acid] | – | 0.25 (≈ 0.544 µM) | 4 (≈ 8.7 µM) | 4 (≈ 8.7 µM) | – | – | – | –
CCn1cc(C(=O)O)c(=O)c2cc(F)c(N3CCN(Cc4cccc5c4CCCC5)CC3)cc21 [Compound 30, 1-Ethyl-6-fluoro-4-oxo-7-(4-((5,6,7,8-tetrahydronaphthalen-1-yl)methyl)piperazin-1-yl)-1,4-dihydroquinoline-3-carboxylic acid] | – | 1 (≈ 2.16 µM) | 2 (≈ 4.31 µM) | 2 (≈ 4.31 µM) | 0.25 (≈ 0.539 µM) | 0.5 (≈ 1.08 µM) | – | –
C[C@H]1COc2c(N3CCN(Cc4cccc5ccccc45)CC3)c(F)cc3c(=O)c(C(=O)O)cn1c23 [Compound 22, (S)-9-Fluoro-3-methyl-10-(4-(naphthalen-1-ylmethyl)piperazin-1-yl)-7-oxo-2,3-dihydro-7H-[1,4]oxazino[2,3,4-ij]quinoline-6-carboxylic acid] | – | 0.125 to 1 (≈ 0.256 to 2.05 µM) | 2 to 4 (≈ 4.1 to 8.2 µM) | 4 (≈ 8.2 µM) | 0.25 (≈ 0.513 µM) | 0.5 (≈ 1.03 µM) | – | –
CCn1cc(C(=O)O)c(=O)c2cc(F)c(N3CCN(Cc4cccc5c4OCO5)CC3)cc21 [Compound 34, 7-(4-(Benzo[d][1,3]dioxol-4-ylmethyl)piperazin-1-yl)-1-ethyl-6-fluoro-4-oxo-1,4-dihydroquinoline-3-carboxylic acid] | – | 0.5 (≈ 1.1 µM) | > 32 | > 32 | – | – | – | –
C[C@H]1COc2c(N3CC[C@@H](Nc4cnccn4)C3)c(F)cc3c(=O)c(C(=O)O)cn1c23 [Compound 48, (S)-9-Fluoro-3-methyl-7-oxo-10-((R)-3-(pyrazin-2-ylamino)pyrrolidin-1-yl)-2,3-dihydro-7H-[1,4]oxazino[2,3,4-ij]quinoline-6-carboxylic acid] | – | ≤ 0.125 | 1 (≈ 2.35 µM) | 1 (≈ 2.35 µM) | 0.03 (≈ 0.0705 µM) | 0.125 (≈ 0.294 µM) | – | –
O=C(O)c1cn(C2CC2)c2cc(N3CCN(Cc4ccc(F)c5ccccc45)CC3)c(F)cc2c1=O [Compound 35, 1-Cyclopropyl-6-fluoro-7-(4-((4-fluoronaphthalen-1-yl)methyl)piperazin-1-yl)-4-oxo-1,4-dihydroquinoline-3-carboxylic acid] | – | 4 (≈ 8.17 µM) | 8 (≈ 16.3 µM) | 4 (≈ 8.17 µM) | – | – | – | –
O=C(O)c1cn(C2CC2)c2cc(N3CCN(Cc4cccc5c4CCCC5)CC3)c(F)cc2c1=O [Compound 29, 1-Cyclopropyl-6-fluoro-4-oxo-7-(4-((5,6,7,8-tetrahydronaphthalen-1-yl)methyl)piperazin-1-yl)-1,4-dihydroquinoline-3-carboxylic acid] | – | 0.25 to 1 (≈ 0.526 to 2.1 µM) | 1 to 2 (≈ 2.1 to 4.21 µM) | 1 (≈ 2.1 µM) | 0.5 (≈ 1.05 µM) | 0.5 (≈ 1.05 µM) | – | –
CCn1cc(C(=O)O)c(=O)c2cc(F)c(N3CCN(Cc4ccc(-c5ccccc5)cc4)CC3)cc21 [Compound 40, 7-(4-([1,1’-Biphenyl]-4-ylmethyl)piperazin-1-yl)-1-ethyl-6-fluoro-4-oxo-1,4-dihydroquinoline-3-carboxylic acid] | – | 2 (≈ 4.12 µM) | 4 (≈ 8.24 µM) | 2 (≈ 4.12 µM) | – | – | – | –
c1ccc2c(CN3CCNCC3)cccc2c1 [NMP, 1-(naphthalen-1-ylmethyl)piperazine, reference compound] | – | – | – | – | – | – | – | 2
CCn1cc(C(=O)O)c(=O)c2cc(F)c(N3CCN(Cc4cccc5ccsc45)CC3)cc21 [Compound 38, 7-(4-(Benzo[b]thiophen-7-ylmethyl)piperazin-1-yl)-1-ethyl-6-fluoro-4-oxo-1,4-dihydroquinoline-3-carboxylic acid] | – | 0.25 (≈ 0.537 µM) | 2 (≈ 4.3 µM) | 2 (≈ 4.3 µM) | – | – | – | –
CN(C)c1ccc(CN2CCN(c3cc4c(cc3F)c(=O)c(C(=O)O)cn4C3CC3)CC2)cc1 [Compound 31, 1-Cyclopropyl-7-(4-(4-(dimethylamino)benzyl)piperazin-1-yl)-6-fluoro-4-oxo-1,4-dihydroquinoline-3-carboxylic acid] | – | 0.06 to 0.125 (≈ 0.129 to 0.269 µM) | 16 to 32 (≈ 34.4 to 68.9 µM) | 8 to 16 (≈ 17.2 to 34.4 µM) | 0.125 (≈ 0.269 µM) | 0.25 (≈ 0.538 µM) | – | –
CCn1cc(C(=O)O)c(=O)c2cc(F)c(N3CCNCC3)cc21 [Compound 2, norfloxacin, reference compound] | – | 2 (≈ 6.26 µM) | > 128 | > 128 | – | – | – | –
CCn1cc(C(=O)O)c(=O)c2cc(F)c(N3CCN(Cc4cccc5ccccc45)CC3)nc21 [Compound 21, 1-Ethyl-6-fluoro-7-(4-(naphthalen-1-ylmethyl)piperazin-1-yl)-4-oxo-1,4-dihydro-1,8-naphthyridine-3-carboxylic acid] | – | 0.5 to 1 (≈ 1.09 to 2.17 µM) | 2 to 4 (≈ 4.34 to 8.69 µM) | 2 to 8 (≈ 4.34 to 17.4 µM) | – | – | – | –
O=C(O)c1cn(C2CC2)c2cc(N3CCN(Cc4ccccc4)CC3)c(F)cc2c1=O [Compound 25, 7-(4-Benzylpiperazin-1-yl)-1-cyclopropyl-6-fluoro-4-oxo-1,4-dihydro quinoline-3-carboxylic acid] | – | 0.125 to 0.25 (≈ 0.297 to 0.593 µM) | 32 (≈ 75.9 µM) | 16 to 32 (≈ 38 to 75.9 µM) | – | – | – | –
